ChEMBL document CHEMBL4619763 (J Nat Prod, 2020)
Values belong to the compound of their own block, whether it stands above or below them. Activity calls are given as the source filed them. The rule behind the calls is not given here.

Tests used:
Rattus norvegicus [1] = assay: Diuretic activity in normotensive Wistar rat assessed as urine conductivity at 10 mg/kg, po administered via gavage after 8 hrs (reference value: 19.54 +/- 0.98 mS/cm); assay type: functional
Rattus norvegicus [2] = assay: Diuretic activity in normotensive Wistar rat assessed as urinary sodium excretion at 10 mg/kg, po administered via gavage after 8 hrs (reference value: 61.82 to 80.81 mmol/L); assay type: functional
Rattus norvegicus [3] = assay: Diuretic activity in normotensive Wistar rat assessed as urinary potassium excretion at 10 mg/kg, po administered via gavage after 8 hrs (reference value: 22.39 to 24.21 mmol/L); assay type: ADME, organism-based; conditions: in vivo
Rattus norvegicus [4] = assay: Diuretic activity in normotensive Wistar rat assessed as urinary chloride excretion at 10 mg/kg, po administered via gavage after 8 hrs (reference value: 135.10 to 143.70 mmol/L); assay type: functional
Rattus norvegicus [5] = assay: Diuretic activity in normotensive Wistar rat assessed as urinary calcium excretion at 10 mg/kg, po administered via gavage after 8 hrs (reference value: 5.93 to 6.87 mg/dl); assay type: functional
Rattus norvegicus [6] = assay: Diuretic activity in normotensive Wistar rat assessed as increase in urine volume at 10 mg/kg, po administered via gavage for 7 days; assay type: functional, organism-based
Rattus norvegicus [7] = assay: Diuretic activity in spontaneous hypertensive Wistar rat assessed as increase in urine volume at 10 mg/kg, po administered via gavage for 7 days; assay type: functional, organism-based
Rattus norvegicus [8] = assay: Diuretic activity in normotensive Wistar rat assessed as increase in urinary sodium excretion at 10 mg/kg, po administered via gavage for 7 days; assay type: functional, organism-based
Rattus norvegicus [9] = assay: Diuretic activity in normotensive Wistar rat assessed as increase in urinary chloride excretion at 10 mg/kg, po administered via gavage for 7 days; assay type: functional, organism-based
Rattus norvegicus [10] = assay: Diuretic activity in normotensive Wistar rat assessed as decrease in urinary calcium excretion at 10 mg/kg, po administered via gavage for 7 days; assay type: functional, organism-based
Rattus norvegicus [11] = assay: Diuretic activity in spontaneous hypertensive Wistar rat assessed as increase in urinary sodium excretion at 10 mg/kg, po administered via gavage for 7 days; assay type: functional, organism-based
Rattus norvegicus [12] = assay: Diuretic activity in spontaneous hypertensive Wistar rat assessed as increase in urinary chloride excretion at 10 mg/kg, po administered via gavage for 7 days; assay type: functional, organism-based
Rattus norvegicus [13] = assay: Diuretic activity in spontaneous hypertensive Wistar rat assessed as decrease in urinary calcium excretion at 10 mg/kg, po administered via gavage for 7 days; assay type: functional, organism-based
Rattus norvegicus [14] = assay: Diuretic activity in normotensive Wistar rat assessed as increase in urinary potassium excretion at 10 mg/kg, po administered via gavage for 7 days; assay type: ADME, organism-based; conditions: in vivo, 168 h
Rattus norvegicus [15] = assay: Diuretic activity in spontaneous hypertensive Wistar rat assessed as increase in urinary potassium excretion at 10 mg/kg, po administered via gavage for 7 days; assay type: ADME, organism-based; conditions: in vivo, 168 h
Rattus norvegicus [16] = assay: In vivo antioxidant activity in Wistar rat model of hypertension-induced oxidative stress assessed as reduction in reactive oxygen species generation in renal tissue at 10 mg/kg, po administered via gavage for 7 days by DCFH-DA probe based fluorimetric assay; assay type: functional, organism-based
Rattus norvegicus [17] = assay: In vivo antioxidant activity in Wistar rat model of hypertension-induced oxidative stress assessed as reduction in nitrite level in renal tissue at 10 mg/kg, po administered via gavage for 7 days by Griess reagent based assay; assay type: functional, organism-based
Rattus norvegicus [18] = assay: Renal protective activity in spontaneous hypertensive Wistar rat assessed as reduction in hypertension-induced glomerular size at 10 mg/kg, po administered via gavage for 7 days by hematoxylin and eosin staining based microscopic analysis; assay type: functional, organism-based
Rattus norvegicus [19] = assay: Renal protective activity in spontaneous hypertensive Wistar rat assessed as reduction in hypertension-induced Bowman's capsule thickening at 10 mg/kg, po administered via gavage for 7 days by hematoxylin and eosin staining based microscopic analysis; assay type: functional, organism-based
Rattus norvegicus [20] = assay: Renal protective activity in spontaneous hypertensive Wistar rat assessed as reduction in hypertension-induced mesangial space disarrangement at 10 mg/kg, po administered via gavage for 7 days by hematoxylin and eosin staining based microscopic analysis; assay type: functional, organism-based
Rattus norvegicus [21] = assay: Anti-urolithic activity in normotensive Wistar rats assessed as reduction in CaOx crystal formation in cumulative urine at 10 mg/kg, po administered via gavage in presence of sodium oxalate by Neubauer counting chamber method relative to control; assay type: functional; set-up: scale not given: the % may be the effect or the level left
Rattus norvegicus [22] = assay: Anti-urolithic activity in spontaneous hypertensive Wistar rats assessed as reduction in CaOx crystal formation in cumulative urine at 10 mg/kg, po administered via gavage in presence of sodium oxalate by Neubauer counting chamber method relative to control; assay type: functional; set-up: scale not given: the % may be the effect or the level left
Rattus norvegicus [23] = assay: Diuretic activity in normotensive Wistar rat assessed as urine pH at 20 mg/kg, po administered via gavage after 8 hrs (reference value: 6.14 to 6.21); assay type: functional
[24] = Anti-urolithic activity in synthetic urine assessed as reduction in CaOx crystal formation at 10 mg/mL in presence of sodium oxalate after 60 mins by Neubauer counting chamber method relative to control; assay type: functional; set-up: scale not given: the % may be the effect or the level left
[25] = Anti-urolithic activity in synthetic urine assessed as decrease in absorbance at 10 mg/mL relative to control; assay type: functional; set-up: scale not given: the % may be the effect or the level left
[26] = Anti-urolithic activity in synthetic urine assessed as decrease in absorbance at 10 mg/mL after 30 mins relative to control; assay type: functional; set-up: scale not given: the % may be the effect or the level left
[27] = Anti-urolithic activity in synthetic urine assessed as decrease in absorbance at 10 mg/mL after 60 mins relative to control; assay type: functional; set-up: scale not given: the % may be the effect or the level left
Rattus norvegicus [28] = assay: Diuretic activity in normotensive Wistar rat assessed as urine pH at 3 mg/kg, po administered via gavage after 8 hrs (reference value: 6.14 to 6.21); assay type: functional
Rattus norvegicus [29] = assay: Diuretic activity in normotensive Wistar rat assessed as urine conductivity at 3 mg/kg, po administered via gavage after 8 hrs (reference value: 19.54 +/- 0.98 mS/cm); assay type: functional
Rattus norvegicus [30] = assay: Diuretic activity in normotensive Wistar rat assessed as urinary sodium excretion at 3 mg/kg, po administered via gavage after 8 hrs (reference value: 61.82 to 80.81 mmol/L); assay type: functional
Rattus norvegicus [31] = assay: Diuretic activity in normotensive Wistar rat assessed as urinary chloride excretion at 3 mg/kg, po administered via gavage after 8 hrs (reference value: 135.10 to 143.70 mmol/L); assay type: functional
Rattus norvegicus [32] = assay: Diuretic activity in normotensive Wistar rat assessed as urinary calcium excretion at 3 mg/kg, po administered via gavage after 8 hrs (reference value: 5.93 to 6.87 mg/dl); assay type: functional
Rattus norvegicus [33] = assay: Diuretic activity in normotensive Wistar rat assessed as increase in urine volume excretion at 0.1 to 1 mg/kg, po administered via gavage measured up to 8 hrs; assay type: functional, organism-based
Rattus norvegicus [34] = assay: Diuretic activity in normotensive Wistar rat assessed as increase in urine volume excretion at 0.1 to 1 mg/kg, ip measured up to 8 hrs; assay type: functional, organism-based
Rattus norvegicus [35] = assay: Diuretic activity in normotensive Wistar rat assessed as modification of urinary sodium excretion at 0.1 to 1 mg/kg, po administered via gavage measured up to 8 hrs; assay type: functional, organism-based
Rattus norvegicus [36] = assay: Diuretic activity in normotensive Wistar rat assessed as modification of urinary calcium excretion at 0.1 to 1 mg/kg, po administered via gavage measured up to 8 hrs; assay type: functional, organism-based
Rattus norvegicus [37] = assay: Diuretic activity in normotensive Wistar rat assessed as modification of urinary potassium excretion at 0.1 to 1 mg/kg, po administered via gavage measured up to 8 hrs; assay type: ADME, organism-based; conditions: in vivo
Rattus norvegicus [38] = assay: Diuretic activity in normotensive Wistar rat assessed as modification of urinary chloride excretion at 0.1 to 1 mg/kg, po administered via gavage measured up to 8 hrs; assay type: functional, organism-based

- Activity (Rattus norvegicus [3]): 41 to 44.8 mmol/L
SMILES: NS(=O)(=O)c1cc2c(cc1Cl)NCNS2(=O)=O [HYDROCHLOROTHIAZIDE]
- Activity (Rattus norvegicus [1]): 23.62 - 27.3 mS/cm
- Activity (Rattus norvegicus [2]): 175.7 to 185.7 mmol/L
- Activity (Rattus norvegicus [4]): 279.8 to 286.6 mmol/L
- Activity (Rattus norvegicus [5]): 4.78 to 5.24 mg/dL
- Activity (Rattus norvegicus [6]): Active
- Activity (Rattus norvegicus [7]): Active
- Activity (Rattus norvegicus [8]): Active
- Activity (Rattus norvegicus [9]): Active
- Activity (Rattus norvegicus [10]): Active
- Activity (Rattus norvegicus [11]): Active
- Activity (Rattus norvegicus [12]): Active
- Activity (Rattus norvegicus [13]): Active
- Activity (Rattus norvegicus [14]): Toxic
- Activity (Rattus norvegicus [15]): Toxic
- Activity (Rattus norvegicus [16]): Active
- Activity (Rattus norvegicus [17]): Active
- Activity (Rattus norvegicus [18]): Active
- Activity (Rattus norvegicus [19]): Active
- Activity (Rattus norvegicus [20]): Active
- Activity (Rattus norvegicus [21]): 89.04%
- Activity (Rattus norvegicus [22]): 92.9%

SMILES: NS(=O)(=O)c1cc(C(=O)O)c(NCc2ccco2)cc1Cl [FUROSEMIDE]
- pH (Rattus norvegicus [23]): 6.12

SMILES: O=C([O-])CC(O)(CC(=O)[O-])C(=O)[O-].[K+].[K+].[K+] [POTASSIUM CITRATE ANHYDROUS]
- Activity [24]: 65.02%
- Activity [25]: 81.73%
- Activity [26]: 70.41%
- Activity [27]: 64.85%

SMILES: N=C(N)NC(=O)c1nc(Cl)c(N)nc1N [AMILORIDE]
- pH (Rattus norvegicus [28]): 6.29
- Activity (Rattus norvegicus [29]): 18.23 mS/cm
- Activity (Rattus norvegicus [30]): 117.2 mmol/L
- Activity (Rattus norvegicus [31]): 170.5 mmol/L
- Activity (Rattus norvegicus [32]): 5.7 mg/dL

SMILES: O=c1c(O)c(-c2ccc(O)cc2)oc2cc(O)cc(O)c12 [KAEMPFEROL]
- Activity (Rattus norvegicus [33]): inactive
- Activity (Rattus norvegicus [34]): inactive
- Activity (Rattus norvegicus [35]): inactive
- Activity (Rattus norvegicus [36]): inactive
- Activity (Rattus norvegicus [37]): Non-Toxic
- Activity (Rattus norvegicus [38]): inactive
